Columns and labels:
Type in all cases: in vivo, broiler cross chicks
[1] = Example XII: 4 week chick feeding test, repeat with five replicates (Table VII)
[2] = Example XII: 4 week chick feeding test, first set (Table VI); settings: Table VI
Text: (§1) This example compares growth promotion activity of the product of Example I with other growth promotants at a concentration of 25 g/T in the Basal Ration described in Example VII. The other growth promotants include the product described in Example I of U.S. Pat. No. 3,542,784 -- Burch and quinoxaline-1,4-dioxide. Day old broiler cross chicks were weight equalized into groups of 8 chicks each, and four replicates of 8 chicks each were fed the experimental rations over a 4 week period.
The growth promotion tests described in Example X were repeated with the additional testing the products of Examples II and III.

[3] = Example X: 4 week chick feeding test, 25 g/T; settings: for growth rate and feed efficiency response (in words): 25 g/T, Table IV
Text: as §1

[4] = Example XI: 4 week chick feeding test, five replicates; settings: Table V
Text: as §1
The growth promotion tests described in Example X were repeated with the exception that fives replicates of 8 chicks each were fed the formulations described in Table V for four weeks.

Structure (SMILES)	Average 4 Week Performance: Feed Efficiency ([1]; 25g/T)	Average 4 Week Performance: Gain ([1]; 25g/T)	Improved Response Over Basal Ration: Feed Efficiency ([1]; 25g/T)	Improved Response Over Basal Ration: Gain ([1]; 25g/T)	growth rate / feed efficiency response (in words) ([1]; Table VII)	growth rate / feed efficiency response (in words) [2]	Average 4 Week Performance: Feed Efficiency ([3]; 25g/T)	Average 4 Week Performance: Gain ([3]; 25g/T)	Improved Response Over Basal Ration: Feed Efficiency ([3]; 25g/T)	Improved Response Over Basal Ration: Gain ([3]; 25g/T)	growth rate and feed efficiency response (in words) [3]	feed efficiency (in words) [4]	growth rate (in words) [4]
O=[N+]([O-])c1ccc(-c2nc(Nc3ccc(O)cc3)c3ccccc3n2)o1 [Example III of U.S. 3,542,784 - Burch, 2-(5-nitro-2-furyl)-4-(p-hydroxyaniline)quinazoline, reference compound]	1.737	668.1 g	+2.7%	-2.1%	essentially no effect on growth rate or feed efficiency	essentially no effect on growth rate or feed efficiency	1.525	809.5 g	+1.7%	+5.8%	appeared to give a growth response in this test but with a slight, it any, effect on feed efficiency	–	–
[O-][n+]1cc[n+]([O-])c2ccccc21 [Quinoxaline-1,4-dioxide, quinoxaline-1,4-dioxide]	–	–	–	–	–	–	–	–	–	–	did not have any apparent effect	improvement in feed efficiency	questionable effect on growth

— US3973021A, “2-[2-(5-Nitro-2-furyl)vinyl]-4-(phydroxyanilino)quinazoline as a bactericide” (Diamond Shamrock Corporation, priority 1975, dated 1976)
